Where no end group is shown, it is not given here.
How the values were obtained:
HLA DRB1 *0701 = HLA DRB1 *0701 (Homo sapiens, UniProt P01903+P01911, A100R/A102G/A103Q/D57E/D86V/E43K/F76Y/K127E/L162R/M171V/P40G/Q125H/Q99D/R33Q/R42Y/R54Q/S133A/S66F/T210M/V115G/Y107V/Y59L/Y89S); assay: IC50nM to purified HLA | DRB1 *0701
Procedure: (§1) Table printed on a drawing sheet, FIG. 1 (contd.)
Head of the field: IC50nM to purified HLA | DRB1 *0701
(§2) First copying reader's note: Continued from an earlier sheet of FIG. 1; decimal commas as printed, analog names encode substituted residues and positions, and some values are printed in italics or bold and some SEQ ID NOs underlined without a legend on this sheet.
Where the first naming reader finds the target: head: IC50nM to purified HLA | DRB1 *0701

HLA DRB1 *0401 = HLA DRB1 *0401 (Homo sapiens, UniProt P01903+P01911, A100K/A169T/F76Y/I96L/K127E/L162R/M171V/N62H/P40V/Q125Y/R42H/S133A/S149N/S66Y/V115G/V209L/W38E); assay: IC50nM to purified HLA | DRB1 *0401
Procedure: as §1
Head of the field: IC50nM to purified HLA | DRB1 *0401
as §2
Where the first naming reader finds the target: head: IC50nM to purified HLA | DRB1 *0401

HLA DRB4 *0101 = HLA DRB4 *0101 (Homo sapiens, UniProt P01903+P13762, G164S); assay: IC50nM to purified HLA | DRB4 *0101
Procedure: as §1
Head of the field: IC50nM to purified HLA | DRB4 *0101
as §2
Where the first naming reader finds the target: head: IC50nM to purified HLA | DRB4 *0101

HLA DRB1 *0404 = HLA DRB1 *0404 (Homo sapiens, UniProt P01903+P01911, A100R/A169T/F76Y/I96L/K127E/L162R/M171V/N62H/P40V/Q125Y/R42H/S133A/S149N/S66Y/V209L/W38E); assay: IC50nM to purified HLA | DRB1 *0404
Procedure: as §1
Head of the field: IC50nM to purified HLA | DRB1 *0404
as §2
Where the first naming reader finds the target: head: IC50nM to purified HLA | DRB1 *0404

HLA DRB1 *1302 = HLA DRB1 *1302 (Homo sapiens, UniProt P01903+P01911, A100E/A169T/K41T/L162R/M171V/P40S/Q125H/Q178H/Q39Y/Q99D/R42S/S66N/T262R/V115G/W38E/Y61H); assay: IC50nM to purified HLA | DRB1 *1302
Procedure: as §1
Head of the field: IC50nM to purified HLA | DRB1 *1302
as §2
Where the first naming reader finds the target: head: IC50nM to purified HLA | DRB1 *1302

HLA DRB1 *0101 = HLA DRB1 *0101 (Homo sapiens, UniProt P01903+P01911, A100R/D57E/F55L/F60I/F76Y/I96L/L162R/M171V/P40L/Q125E/R42F/V115G/Y59C); assay: IC50nM to purified HLA | DRB1 *0101
Procedure: as §1
Head of the field: IC50nM to purified HLA | DRB1 *0101
as §2
Where the first naming reader finds the target: head: IC50nM to purified HLA | DRB1 *0101

HLA DRB1 *0901 = HLA DRB1 *0901 (Homo sapiens, UniProt P01903+P01911, A100R/A103E/D57H/D86V/F55Y/F60I/F76Y/I96F/K127E/L162R/M171V/P40D/Q125H/Q99R/R33Q/R42F/S133A/S66N/T210M/V115G/W38K/Y107V/Y59G/Y89S); assay: IC50nM to purified HLA | DRB1 *0901
Procedure: as §1
Head of the field: IC50nM to purified HLA | DRB1 *0901
as §2
Where the first naming reader finds the target: head: IC50nM to purified HLA | DRB1 *0901

HLA DRB1 *1501 = HLA DRB1 *1501 (Homo sapiens, UniProt P01903+P01911); assay: IC50nM to purified HLA | DRB1 *1501
Procedure: as §1
Head of the field: IC50nM to purified HLA | DRB1 *1501
as §2
Where the first naming reader finds the target: head: IC50nM to purified HLA | DRB1 *1501

HLA DRB1 *0301 = HLA DRB1 *0301 (Homo sapiens, UniProt P01903+P01911, A100K/A102G/A103R/A169T/F55Y/I96L/K41T/L162R/M171V/P40S/Q125H/Q178H/Q39Y/R42S/S66N/T106N/T262R/W38E/Y61H); assay: IC50nM to purified HLA | DRB1 *0301
Procedure: as §1
Head of the field: IC50nM to purified HLA | DRB1 *0301
as §2
Where the first naming reader finds the target: head: IC50nM to purified HLA | DRB1 *0301

HLA DRB1 *0802 = HLA DRB1 *0802 (Homo sapiens, UniProt P01903+P01911, A100R/A103L/A169T/F76Y/H45Y/I96F/K41T/L162R/M171V/P40S/Q125H/Q178H/Q39Y/Q99D/R218S/R42G/S66Y/V115G/W38E); assay: IC50nM to purified HLA | DRB1 *0802
Procedure: as §1
Head of the field: IC50nM to purified HLA | DRB1 *0802
as §2
Where the first naming reader finds the target: head: IC50nM to purified HLA | DRB1 *0802

HLA DRB1 *1101 = HLA DRB1 *1101 (Homo sapiens, UniProt P01903+P01911, A100R/A169T/A87E/I96F/K41T/L162R/M171V/P40S/Q125H/Q178H/Q39Y/Q99D/R42S/S66Y/T262R/V115G/W38E); assay: IC50nM to purified HLA | DRB1 *1101
Procedure: as §1
Head of the field: IC50nM to purified HLA | DRB1 *1101
as §2
Where the first naming reader finds the target: head: IC50nM to purified HLA | DRB1 *1101

HLA DRB1 *0405 = HLA DRB1 *0405 (Homo sapiens, UniProt P01903+P01911, A100R/A169T/D86S/F76Y/I96L/K127E/L162R/M171V/N62H/P40V/Q125Y/R42H/S133A/S149N/S66Y/V115G/V209L/W38E); assay: IC50nM to purified HLA | DRB1 *0405
Procedure: as §1
Head of the field: IC50nM to purified HLA | DRB1 *0405
as §2
Where the first naming reader finds the target: head: IC50nM to purified HLA | DRB1 *0405

HLA DRB5 *0101 = HLA DRB5 *0101 (Homo sapiens, UniProt P01903+Q30154); assay: IC50nM to purified HLA | DRB5 *0101
Procedure: as §1
Head of the field: IC50nM to purified HLA | DRB5 *0101
as §2
Where the first naming reader finds the target: head: IC50nM to purified HLA | DRB5 *0101

HLA DRB1 *0301, sequence (P01903 26-254 limits assumed, other chains not shown): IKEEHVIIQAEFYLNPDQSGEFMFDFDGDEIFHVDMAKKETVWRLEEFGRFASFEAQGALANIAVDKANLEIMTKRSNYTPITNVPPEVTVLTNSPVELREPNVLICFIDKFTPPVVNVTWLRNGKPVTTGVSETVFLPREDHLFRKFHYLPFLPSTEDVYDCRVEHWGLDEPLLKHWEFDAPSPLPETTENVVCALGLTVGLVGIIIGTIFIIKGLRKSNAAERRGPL
HLA DRB1 *1101, sequence (P01903 26-254 limits assumed, other chains not shown): as above
HLA DRB1 *1302, sequence (P01903 26-254 limits assumed, other chains not shown): as above
HLA DRB4 *0101, sequence (P01903 26-254 limits assumed): as the sequence (P01903 26-254 limits assumed, other chains not shown) above
HLA DRB4 *0101, sequence (P13762 whole entry G164S): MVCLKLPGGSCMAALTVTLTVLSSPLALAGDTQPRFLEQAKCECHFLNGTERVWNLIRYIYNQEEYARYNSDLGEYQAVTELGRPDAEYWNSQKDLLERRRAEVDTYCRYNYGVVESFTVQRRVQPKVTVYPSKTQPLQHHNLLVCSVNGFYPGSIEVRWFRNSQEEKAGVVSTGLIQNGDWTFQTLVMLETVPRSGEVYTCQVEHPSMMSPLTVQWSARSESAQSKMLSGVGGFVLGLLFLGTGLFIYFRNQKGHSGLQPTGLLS

IC50 (HLA DRB1 *0701)	IC50 (HLA DRB1 *0401)	IC50 (HLA DRB4 *0101)	IC50 (HLA DRB1 *0404)	IC50 (HLA DRB1 *1302)	IC50 (HLA DRB1 *0101)	IC50 (HLA DRB1 *0901)	IC50 (HLA DRB1 *1501)	IC50 (HLA DRB1 *0301)	IC50 (HLA DRB1 *0802)	IC50 (HLA DRB1 *1101)	IC50 (HLA DRB1 *0405)	IC50 (HLA DRB5 *0101)	Sequence
109 nM	2.7 nM	109 nM	4.5 nM	65 nM	7.3 nM	75 nM	17 nM						AAAIFVAANTLHAAA [SEQ ID NO: 72]
75 nM		124 nM	1.6 nM		4 nM		7.3 nM	393 nM	14 nM				AAAIFVAAWTLKAAA [SEQ ID NO: 68]
95 nM		346 nM		1950 nM	5.7 nM		3.2 nM	301 nM	9.4 nM	19 nM			AAAIFVAAYTLHAAA [SEQ ID NO: 70]
52 nM	1.6 nM	111 nM			4.7 nM	41 nM		254 nM	12 nM		12 nM		AAANFVAAFTLHAAA [SEQ ID NO: 53]
	4.3 nM		12 nM		10 nM		24 nM			74 nM	13 nM		AAANFVAAFTLKADA [SEQ ID NO: 57]
		492 nM		1570 nM	8 nM			1540 nM	14 nM		12 nM		AAANFVAAFTLKAEA [SEQ ID NO: 61]
84 nM	3.4 nM	1110 nM		44 nM	6.1 nM		114 nM					43 nM	AAANFVAANTLHAAA [SEQ ID NO: 54]
	9.7 nM	6320 nM		269 nM		109 nM	296 nM						AAANFVAANTLKADA [SEQ ID NO: 58]
107 nM		964 nM	11 nM					1740 nM		78 nM		34 nM	AAANFVAANTLKAEA [SEQ ID NO: 62]
52 nM	5.5 nM		9.7 nM		7.6 nM				35 nM	41 nM		24 nM	AAANFVAAWTLKADA [SEQ ID NO: 55]
		221 nM		1040 nM	1.8 nM		31 nM	723 nM	19 nM		3.8 nM	15 nM	AAANFVAAWTLKAEA [SEQ ID NO: 59]
	6.3 nM		15 nM	819 nM		44 nM	12 nM	1530 nM	22 nM	100 nM			AAANFVAAYTLKADA [SEQ ID NO: 56]
	13 nM	718 nM	6.1 nM	590 nM		43 nM	11 nM	1070 nM	21 nM				AAANFVAAYTLKAEA [SEQ ID NO: 60]
	2.7 nM	97 nM	4.4 nM			31 nM			13 nM		7.7 nM		AAAQFVAAFTLHAAA [SEQ ID NO: 66]
76 nM	3.3 nM						78 nM	319 nM	24 nM	44 nM			AAAQFVAANTLHAAA [SEQ ID NO: 67]
				1120 nM			13 nM	187 nM			13 nM		AAAQFVAAWTLHAAA [SEQ ID NO: 64]
	1.6 nM	259 nM			5.1 nM		17 nM	271 nM		12 nM	21 nM	5.2 nM	AAAQFVAAWTLKAAA [SEQ ID NO: 63]
	2.2 nM	428 nM		700 nM	4.2 nM	21 nM	3.6 nM	153 nM	5.1 nM	17 nM	22 nM	24 nM	AAAQFVAAYTLHAAA [SEQ ID NO: 65]
